According to EP0484785B1, “Use of xanthines for the preparation of a medicament effective for inhibiting the replication of human retroviruses” (HOECHST-ROUSSEL PHARMACEUTICALS INCORPORATED, priority 1990, dated 1992):
Like-named read-outs stand apart in the source and are kept apart here.

How the values were obtained:
HIV-1 LTR = assay: HIV-1 LTR-mediated gene expression, CAT activity in U38 cells; assay type: cell-based, human; design: CAT activity: unit not given here; details: for CAT activity: 2 days
Protocol: Down-regulation of gene expression mediated by the HIV-1 LTR: U38 cells (Felber BK, Pavlakis GN. Science 1988, 239:184-187) were cultured in the presence or absence of 10 ng/ml phorbol-12-myristate-13-acetate (PMA). U38 cells were derived from the monocytoid human cell line U937 and contain integrated copies of the HIV-1 LTR ligated to the chloramphenicol acetyl transferase (CAT) gene. These cells have been kindly provided by Dr. Barbara Felber (National Cancer Institute, Frederick, Maryland, USA). Two hours later, the cells were washed once in phosphate-buffered saline (PBS) and cultured in the presence of various concentrations of pentoxifylline. After 2 days, cell viability was tested by trypan blue staining, and the activity of CAT was measured as described previously (Sodroski, J. et al., Science 1985, 227:171-173) after standardizing the cell extracts for protein content.

HIV-1 [1] = assay: HIV-1 replication in acutely infected Jurkat cells, reverse transcriptase activity in cell-free supernatants; assay type: cell-based; details: for Reverse Transcriptase (% control): Jurkat cells, 4 h pretreatment, 7 days
Protocol: (§1) Human Jurkat cells (a CD4⁺ T-cell lymphoma line) were grown in RPMI-1640 supplemented with 10% fetal calf serum, penicillin, streptomycin and L-glutamine. HIV-1 was produced in Jurkat cells. During the log phase of growth, cell-free supernatant was harvested, tested for RT activity (according to the method of Dayton et al., Cell 1986, 44:941-947) and frozen in aliquots at -70°C until use. Jurkat cells were pretreated with pentoxifylline at various concentrations for 4 hours after which HIV-1 (10⁴ cpm units of RT activity) was added to the cultures. The cells remained in the appropriate concentration of pentoxifylline for a total of 7 days, at which point the RT activity was measured in cell-free supernatants. In parallel, cell viability was tested by trypan blue staining of uninfected Jurkat cells treated for 7 days with various concentrations of pentoxifylline. The results are expressed as a percent of control.

HIV-1 [2] = assay: HIV-1 replication in acutely infected peripheral blood mononuclear cells, reverse transcriptase activity in cell-free supernatants; assay type: cell-based; details: for Reverse Transcriptase (% control): PBM, 4 h pretreatment, 7 days
Protocol: (§2) Human peripheral blood mononuclear cells (PBM) were obtained by Ficoll-Hypaque gradient centrifugation of blood donated by normal HIV-1 sero-negative individuals. PBM were cultured in RPMI-1640 supplemented with 20% fetal calf serum, penicillin, streptomycin and L-glutamine. After stimulating cells overnight with 15 µg/ml of concanavalin A, they were maintained in 10 units/ml interleukin-2 (IL-2) for the duration of the assay. To test for the inhibition of HIV-1 replication in PBM by pentoxifylline, PBM were pretreated with various concentrations of pentoxifylline for 4 hours after which HIV-1 (10⁴ cpm units of RT activity) was added to the cultures. The cells remained in the appropriate concentrations of the drug for a total of 7 days at which point the RT activity was measured in cell-free supernatants. In parallel, the cytotoxicity was analyzed by trypan blue staining of uninfected PBM treated for 7 days with various concentrations of pentoxifylline. The results are expressed as percent of untreated controls.

[3] = test system: peripheral blood mononuclear cells (PBM); assay type: cell-based; details: human, 7 days
Protocol: as §2

Jurkat cells = assay type: cell-based; details: human, 7 days
Protocol: as §1

CC(=O)CCCCn1c(=O)c2c(ncn2C)n(C)c1=O [Pentoxifylline, pentoxifylline]
CAT activity (HIV-1 LTR; Phorbol ester-non-stimulated, pentoxifylline 50 micromolar): 4.91
CAT activity (HIV-1 LTR; Phorbol ester-non-stimulated, pentoxifylline 100 micromolar): 3.75
CAT activity (HIV-1 LTR; Phorbol ester-non-stimulated, pentoxifylline 500 micromolar): 2.95
CAT activity (HIV-1 LTR; Phorbol ester-non-stimulated, pentoxifylline 1000 micromolar): 2.81
CAT activity (HIV-1 LTR; Phorbol ester-stimulated (10 ng/ml PMA), pentoxifylline 50 micromolar): 50.4
CAT activity (HIV-1 LTR; Phorbol ester-stimulated (10 ng/ml PMA), pentoxifylline 100 micromolar): 23.9
CAT activity (HIV-1 LTR; Phorbol ester-stimulated (10 ng/ml PMA), pentoxifylline 500 micromolar): 20.3
CAT activity (HIV-1 LTR; Phorbol ester-stimulated (10 ng/ml PMA), pentoxifylline 1000 micromolar): 19.5
chloramphenicol transacetylase activity (CAT) (HIV-1 LTR; U38 cells, whether or not first pretreated with phorbol ester): decreased
HIV-1 replication as measured by reverse transcriptase activity (HIV-1 [1]; Jurkat cells acutely infected with HIV): decreased
Reverse Transcriptase (% control) (HIV-1 [1]; pentoxifylline 50 micromolar): 84.6 % control
Reverse Transcriptase (% control) (HIV-1 [1]; pentoxifylline 100 micromolar): 72.9 % control
Reverse Transcriptase (% control) (HIV-1 [1]; pentoxifylline 500 micromolar): 69.5 % control
Reverse Transcriptase (% control) (HIV-1 [1]; pentoxifylline 1000 micromolar): 55.0 % control
Reverse Transcriptase (% control) (HIV-1 [2]; pentoxifylline 25 micromolar): 75.5 % control
Reverse Transcriptase (% control) (HIV-1 [2]; pentoxifylline 50 micromolar): 72.9 % control
Reverse Transcriptase (% control) (HIV-1 [2]; pentoxifylline 250 micromolar): 30.0 % control
Reverse Transcriptase (% control) (HIV-1 [2]; pentoxifylline 500 micromolar): 22.7 % control
Reverse Transcriptase (% control) (HIV-1 [2]; pentoxifylline 1000 micromolar): 18.6 % control
HIV-1 replication as measured by reverse transcriptase activity (HIV-1 [2]; peripheral blood mononuclear cells acutely infected with HIV-1): decreased
Viability (% control) ([3]; 50 micromolar): 93.5 % control
Viability (% control) ([3]; 500 micromolar): 84.8 % control
Viability (% control) ([3]; 1000 micromolar): 50.0 % control
Cell viability (Jurkat cells): > 95%
